Here are results for 1 compound from US11149047B2, “Aryl imidazoles for treatment of cancer” (Aptose Biosciences Inc., priority 2017, dated 2021).

SMILES strings stand for the structures.

Test [1] deals with MCF10A BRCA1-het #1 and #2 clones vs control. Description: Sensitivity of BRCA1-proficient and -deficient isogenic clones. The class given is cell-based, human. The following applies: FIG. 3A. Here is the method:
(§1) Cells were plated and treated with the indicated drugs in 96-well plates for 5 days. Cell viability was measured using CellTiter 96 AQueous one solution (MTS) cell proliferation assay purchased from Promega, and IC50 values were calculated using GraphPad Prism 6 Software.
(§2) The finding that COMPOUND I produced DNA damage led to the investigation of whether cells deficient in homologous recombination were hypersensitive to this drug. The hypothesis that there would be synthetic lethality between COMPOUND I and BRCA1 deficiency using isogenic pairs of BRCA1-proficient and -deficient human cell lines was tested. […] The conclusion that BRCA1-deficient cells are hypersensitive to COMPOUND I was further supported by the results obtained in MCF7 E7 cells in which BRCA1 expression is stably knocked down by the expression of an shRNAi. […] Whether BRCA2-deficient cells are more sensitive to COMPOUND I was tested using the BRCA2-proficient and BRCA2-deficient ovarian cancer cell lines, PEO4 and PEO1, respectively. PEO1 is BRCA2-deficient and sensitive to cisplatin and a poly(ADP-ribose) polymerase inhibitor AG14361. PEO4 was derived from ascites at the time of relapse with cisplatin resistance and contains a secondary mutation that restores BRCA2 function. […] Thus, loss of either BRCA1 or BRCA2 function renders malignant cells hypersensitive to COMPOUND I.

Test [2] has as its system hTERT-IMEC BRCA1 knock-in clone. Described as above. The class given is cell-based, human. To be noted: FIG. 3B. Here is the method:
as §1, §2

For the next test, the system named is Jurkat. Description: Cytotoxicity study (MTS), 5 days. It is filed as cell-based. To be noted: Homo sapiens, T-ALL. Here is the method: (§3) EOL-1, GRANTA-519, Jeko-1, Jurkat, Molm-13, NOMO-1, SKM-1, and SU-DHL-6 were obtained from Leibniz-Institut DSMZ. HL-60, KG-1, Mino, MV4-11, Raji, and THP-1 were obtained from ATCC. HEL92.1.7 were obtained from the European Collection of Authenticated Cell Cultures and Ramos cells were a gift from Dr. M. Andreeff (MD Anderson Cancer Center, Houston, Tex.). All cells were cultured in complete media as per the manufacturer's instructions. Early passage cells were collected and frozen within 1 month of receipt from the manufacturer. All experiments were performed on early passage cells within 6 weeks of thawing. MycoScope Mycoplasma Detection Kit (Genlantis catalog #MY01050) was used to screen for potential contamination every 6 months. Peripheral blood mononuclear cells (PBMC) were isolated from fresh healthy donor blood using Ficoll-Paque PLUS (GE Healthcare, catalog #17-1440-02). For synthesis of COMPOUND I free base, 10-phenanthroline-5,6-dione (1.2 equivalents), acetic acid (22 volumes), 2-methyl-5-fluoroindole-3-carboxaldehyde (1.0 equivalents), and ammonium acetate (15 equivalents) were reacted under medium agitation while heated at 95±5° C. for 3 to 7 hours. The reaction was cooled to between 20° C. and 25° C., filtered, rinsed with acetic acid and ethanol, and dried with N2 purge, followed by a wash with 2:1 ethanol:water at 65° C. for 4 hours, cooling to 20° C. to 25° C., filtration, rinsing with 2:1 ethanol:water and EtOAc, and then dried with N2 purge. The purity by HPLC was 99.5%, and the structural identity was confirmed by FT-IR, ^1HNMR, ^13C NMR, and LC/MS. For Fe(COMPOUND I)3 synthesis, five molar equivalents of ferrous ion FeSO4 in water was added to COMPOUND I dissolved in ethanol. The deep red precipitate produced, Fe(COMPOUND I)3, was collected and dissolved in DMSO and characterized by HPLC and mass spectrometry as >95% pure. CX-5461 (7) was purchased from MedChem Express (catalog #HY-13323).
(§4) Cells were plated and treated with vehicle DMSO or COMPOUND I (10 concentrations) in 96-well plates for 5 days at 37° C. and 5% CO2. Cell viability was measured using CellTiter 96 AQueous one solution (MTS) cell proliferation assay (Promega, catalog #G3581), and IC50 values were calculated using GraphPad Prism 7 software.

A further test deals with GRANTA-519. Description: Cytotoxicity study (MTS), 5 days. The class given is cell-based. The following applies: Homo sapiens, MCL. Here is the method: as §3, §4
The subject of test [3] is G4 sequences (telomere, MYC, KIT, rRNA oligos). Description: Modified FRET assay, melting of G-quadruplex oligos. The following applies: FIG. 13C; COMPOUND I data at 6-hour incubation. It is filed as binding, human. Here is the method: FRET assay and data analysis was performed as described previously and modified by using dual labeled (5′ FAM-3′ BHQ1) single-stranded oligos. Melting temperature of each oligo was assessed in the presence of vehicle DMSO or escalating concentrations of COMPOUND I, Fe(COMPOUND I)3, CX-5461, or TMPyP4 using a Roche LightCycler 96 [at 37° C. for 300 seconds followed by temperature increased in […] intervals up to 91° C. (25 steps) with 300-second total incubation time at each temperature]. Drug and oligo reaction mixes were analyzed immediately or incubated for 6 hours at room temperature and then analyzed. […] COMPOUND I data are presented for 6-hour time point.
The ability of COMPOUND I (parental monomeric form of the drug) and Fe(COMPOUND I)3 to bind and stabilize G4 sequences using a modified FRET assay was evaluated (FIGS. 21 and 22). TMPyP4, a well-known G4 ligand, and CX-5461, a clinical stage molecule recently reported to have G4-binding properties, were utilized as controls to assess the specificity of COMPOUND I and Fe(COMPOUND I)3 for G4-stabilizing activity.

The IC50 is the concentration that inhibits the measured activity by half. Read a high IC50 as weaker potency in that assay. `Cc1[nH]c2ccc(F)cc2c1-c1nc2c3cccnc3c3ncccc3c2[nH]1` [COMPOUND I, 2-(5-fluoro-2-methyl-1H-indol-3-yl)-1H-imidazo[4,5-f][1,10]phenanthroline]: the “sensitivity of BRCA1-het knockin clones vs control” value in test [1] is listed as “even more hypersensitive”. Also, the “sensitivity of BRCA1 2-bp knock-in clone” value in test [2] is “hypersensitive to both olaparib and COMPOUND I”. Also, the results for the half-inhibitory concentration (IC50) in the test with Jurkat and with GRANTA-519 were 0.52 µM and 0.082 µM, respectively. Besides, in test [3], the “stabilization of G4 sequences (ΔT1/2)” value is given as “time-dependent stabilization of G4 motifs, but it demonstrated the greatest propensity for stabilizing the MYC G4 sequences”.
